In PubChem BioAssay (NCI):
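1) Cells in 96-well plates. 2) Compound, 48 h, 5 concentrations. 3) Linear interpolation between surrounding doses. 4) Unreached endpoint = highest concentration. GI50: concentration for 50% inhibition of growth. TGI: total growth inhibition.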

Key:
Assay in all cases: NCI anticancer screen, dose series, 48 h
SK-MEL-5 melanoma = test system: SK-MEL-5 melanoma
SF-295 CNS = test system: SF-295 CNS
HCC-2998 colon = test system: HCC-2998 colon
KM12 colon = test system: KM12 colon
A498 renal = test system: A498 renal
UACC-257 melanoma = test system: UACC-257 melanoma
NCI/ADR-RES ovarian = test system: NCI/ADR-RES ovarian
SNB-19 CNS = test system: SNB-19 CNS
UO-31 renal = test system: UO-31 renal
SF-539 CNS = test system: SF-539 CNS

Structure (SMILES) | GI50 (SK-MEL-5 melanoma) [µM] | TGI (SK-MEL-5 melanoma) [µM] | GI50 (SF-295 CNS) [µM] | TGI (SF-295 CNS) [µM] | GI50 (HCC-2998 colon) [µM] | TGI (HCC-2998 colon) [µM] | GI50 (KM12 colon) [µM] | TGI (KM12 colon) [µM] | GI50 (A498 renal) [µM] | TGI (A498 renal) [µM] | GI50 (UACC-257 melanoma) [µM] | TGI (UACC-257 melanoma) [µM] | GI50 (NCI/ADR-RES ovarian) [µM] | TGI (NCI/ADR-RES ovarian) [µM] | GI50 (SNB-19 CNS) [µM] | TGI (SNB-19 CNS) [µM] | GI50 (UO-31 renal) [µM] | TGI (UO-31 renal) [µM] | GI50 (SF-539 CNS) [µM] | TGI (SF-539 CNS) [µM]
COc1cccc(C2CC(=O)Nc3cc4c(cc32)CCC4)c1OC (centres undefined) | 2.9 | 11.1 | 2.83 | 12.4 | 7.56 | 28.1 | 4.21 | 18.6 | 2.39 | 13.2 | 1.11 | 11.2 | 2.43 | 7.14 | 8.66 | > 100 | 7.18 | 38.7 | 3.03 | 10.4
NC(=O)c1c(NC(=O)c2cccc(C(F)(F)F)c2)sc2c1CCC(=O)C2 | 1.18 | 2.95 | 1.23 | 9.07 | 2.59 | > 76.9 | 0.394 | 2.01 | 3.33 | > 100 | 2.17 | 6.38 | 0.528 | 7.69 | 0.432 | > 100 | 0.291 | 1.19 | 0.328 | 1.23
Cc1cc([C@H](C)Nc2nccc(N3C(=O)OC[C@@H]3[C@H](C)F)n2)ncc1-c1ccnc(C(F)(F)F)c1 | 12.1 | 33 | 20.1 | > 100 | 72.6 | > 100 | 33.8 | > 100 | 15.6 | 92.1 | 30.5 | > 100 | 23.3 | > 100 | 39 | > 100 | 6.08 | > 100 | 61.3 | > 100
CNc1ccc(N=Nc2cccc3ncccc23)cc1 | 23 | > 100 | 17.8 | > 100 | 33.5 | > 100 | 34.3 | > 100 |  | > 68.4 | > 92.8 | > 100 | 23.3 | > 100 | > 80.6 | > 100 | 0.89 | > 100 | 63.8 | > 100
CC(=O)c1c(Nc2ccc(F)c(F)c2F)[nH]c2c(F)cc(F)cc2c1=O | 0.188 | 0.431 | 0.308 | 1.5 | 0.378 | 13.6 | 0.342 | 5.57 | 0.206 | 0.575 | 0.338 | 10 | 0.322 | 34.5 | 0.354 | > 70.2 | 0.123 | 0.742 | 0.322 | 4.33
COc1ccc(-c2cn(-c3cc(OC)c(OC)c(OC)c3)c(=O)n2-c2ccccc2)cc1 | 21.5 | > 100 | > 100 | > 100 | > 100 | > 100 | > 100 | > 100 | > 100 | > 100 | > 100 | > 100 | 74.6 | > 100 | > 100 | > 100 | > 100 | > 100 | > 100 | > 100
COc1ccc(-c2nn(-c3cccc(Cl)c3)cc2-c2cc(-c3cccs3)no2)cc1 | 4.74 | 17.3 | 2.7 | 13.2 | 3.47 | 14.6 | 2.98 | 11.1 | 1.81 | 14.6 | 3.07 | 15.1 | 4.01 | 38.1 | 6.09 | > 100 | 2.56 | 11.8 | 7.47 | 36.6
COc1ccc(-c2nn(-c3cccc(Cl)c3)cc2/C=C2\C(=N)N(c3ccccc3)N=C2N)cc1 | 2.16 | 7.73 | 0.271 | 2.83 | 0.627 | 4.42 | 0.2 | 1.79 | 11.2 | > 78.8 | 2.14 | 33.6 | 1.32 | > 48.9 | 8.58 | > 100 | 0.587 | 25.8 | 0.617 | 3.52
C=C[C@@]1(C)CC(=O)[C@]2(O)[C@@]3(C)[C@@H](O)CCC(C)(C)[C@@H]3[C@H](O)[C@@H](OC(C)=O)[C@@]2(C)O1 |  | > 100 |  | > 100 |  | > 100 |  | > 100 |  | > 100 |  | > 100 |  | > 100 |  | > 100 |  | > 100 |  | > 100
Nc1ccc2c(SCC(=O)Nc3ccccc3-c3ccccc3NC(=O)CSc3c4ccccc4nc4cc(N)ccc34)c3ccccc3nc2c1 |  | 30.1 |  | 98 |  | 61.7 |  | 65.8 |  | 65.9 |  | 71.9 |  | > 100 |  | 44.2 |  | 58.4 |  | 64.8
CCCCCCCCCCCCCCCCCCNC(=O)[C@H]1CSC(c2ccc(F)c(OC)c2)N1 (some centres undefined) | 0.812 | 1.52 | 2.14 | 13.7 | 1.05 | 1.94 | 0.899 | 1.79 | > 50 | > 50 | 0.971 | 1.88 | 1.07 | 2.41 | 0.996 | 1.96 | 5.57 | > 50 | 1.77 | 6.26
COc1cc(/C=C2\C(=O)Nc3ccc(Br)cc32)cc(OC)c1OC | 6.33 | > 100 | 12 | 68.9 | 57.4 | > 100 | 3.33 | > 92.4 | 13.7 | > 55.8 | > 50.7 | > 100 | 4.01 | 29.4 | 29.8 | > 100 | 6.73 | > 100 | 26.7 | > 100
CC(C)c1ccc2c(c1)c(SC(C)(C)C)c(CC(C)(C)C(=O)O)n2Cc1ccc(Cl)cc1 | 9.53 | 22.4 | 6.69 | 22.2 | 7.71 | 20.4 | 10.2 | 26.3 | 10.8 | 23.3 | 11 | 24.7 | 10.1 | 26.7 | 8.45 | 22.7 | 7.72 | 20.7 | 9.05 | 21.8
